Tests used:
Candida = assay: Ex vivo human nail fragment model, treatment of Candida infection; assay type: cell-based; details: Experiments 6 and 7; 10% (w/v); 14 d or 28 d, daily
Text: (§1) Trichophyton rubrum strain NCPF0118 was obtained from the National Collection of Pathogenic Fungi, Bristol, UK. Clinical isolates of T. rubrum DM2006 1661, T. rubrum DM2006 1358, T. mentagrophytes DM2006 1503, T. mentagrophytes DM2006 1498 were isolated from patients suffering a range of tinea infections and were purchased from Professor Michel Monod (Service de Dermatologie, Université de Lausanne, Switzerland). Clinical isolates of Candida samples were also obtained from patients suffering from Candidal infection.
The procedure was carried out as described for Example 1 above with modifications to the vehicle, and fungal strains used. Each nail was inoculated with 10 μl of a spore suspension of Candida. Following inoculation the nails were treated with 10% (w/v) Novexatin® (NP213) in a vehicle solution of 50% (w/v) PEG 8000 plus 20% (w/v) urea; 10% (w/v) NP339 in a vehicle solution of 50% (w/v) PEG 8000 plus 20% (w/v) urea; 10% (w/v) NP339 in a vehicle solution of water; a control solution of 50% (w/v) PEG 8000 plus 20% (w/v) urea; a control solution of water; a solution of 16 μg/ml Itraconazole® and 1.6% (w/v) DMSO in a vehicle solution of water and a control solution of 1.6% (w/v) DMSO. As for Experiment 1 above, nail fragments were treated daily for up to 28 days. […]
At the end of the treatment period, the nail fragments were placed in sterile 2 ml microcentrifuge tubes containing 450 μl of a suspension broth consisting of Sabouraud's Liquid Medium, pH 5.6, containing approximately 100 mg of sterile zirconia beads (0.5 mm diameter). […] Colonies were counted on dishes that contained between 20 and 200 colonies in total, and the total number of cfu present in each sample was calculated. […] The counts were corrected for the surface area of the nails studied to give cfu/cm^2, transformed to log10 and means and standard errors of the mean were calculated using GraphPad Prism 4 (GraphPad, San Diego, Calif.). […] When very low numbers of colonies were detected, as in Experiment 3, the calculated cfu values are shown in order to indicate trends.

[1] = system: T. interdigitale NCPF0335; assay: Ex vivo human nail fragment model, prevention of infection; assay type: cell-based, Trichophyton interdigitale; details: Experiment 8
Text: Six nail fragments were obtained. Three were assigned to each of two different infection prevention protocols, involving daily application of 2 different vehicle solutions, each containing a control and 3 different concentrations of Novexatin® (NP213). These vehicle solutions were: 50% (w/v) PEG 8000, and 50% (w/v) PEG 8000 plus 20% (w/v) urea. The concentrations of Novexatin® (NP213) studied were 0% (control), 1% (Novexatin® 1), 5% (Novexatin® 2) and 10% (Novexatin® 3) (w/v). The solutions were applied at a volume of 10 μl/cm^2, corrected for the surface area of the different nail fragments as described above. The applied solution was spread over the dorsal side of the nail, to mimic the intended clinical treatment and the ventral side of the nail rested on the agar surface. Each time the nails were contacted with the vehicle solutions, they were transferred to a new sterile Petri dish containing PBS agar to minimise any build-up of fungal growth on the agar. Nail fragments were contacted with the vehicle solutions daily for 7 days. Following such contact, each nail fragment was contacted with 10 μl of a spore suspension of T. interdigitale NCPF0335 which was prepared as described above. The spore suspension was applied to the ventral side of the nail (i.e. the side next to the skin in situ). […]

[2] = system: four clinical isolates of Trichophyton spp.; assay: In vitro MIC testing of clinical isolates; assay type: cell-based
Text: However, this difference in activity is not reflected in human nail tissue, which should be considered a more appropriate model for activity testing for antimicrobials of this type.

[3] = system: clinical isolates T. rubrum DM 2006 1661, T. rubrum DM 2006 1358, T. mentagrophytes DM 2006 1503, T. mentagrophytes DM 2006 1498; assay: Ex vivo human nail fragment model, treatment, clinical isolates of Trichophyton spp.; assay type: cell-based; details: Experiment 3
Text: as §1
The experiment was performed as described in Experiment 1 with modifications relating to the vehicle, concentrations and fungal strains used. […]
At the end of the treatment period, the nail fragments were placed in sterile 2 ml microcentrifuge tubes containing 450 μl of a suspension broth consisting of Sabouraud's Liquid Medium, pH 5.6, containing approximately 100 mg of sterile zirconia beads (0.5 mm diameter). […] Colonies were counted on dishes that contained between 20 and 200 colonies in total, and the total number of cfu present in each sample was calculated. […] The counts were corrected for the surface area of the nails studied to give cfu/cm^2, transformed to log10 and means and standard errors of the mean were calculated using GraphPad Prism 4 (GraphPad, San Diego, Calif.). […]

[4] = system: Trichophyton rubrum strain NCPF0118; assay: Ex vivo human nail fragment model, treatment of established infection (cfu recovered); assay type: cell-based

7 to 200-mer (SEQ ID NO: 3) polyarginine [Novexatin® (NP213)]
recoverable fungal growth after treatment (Candida): no recoverable fungal growth
fungal growth on pre-treated nail fragments ([1]; pre-treated daily for 7 days (1%, 5%, 10% w/v), after 24 hours from spore contact): no fungal growth
fungal growth on pre-treated nail fragments ([1]; up to 14 days after contact with spore suspension): No fungal growth was observed
susceptibility of clinical isolates compared to T. rubrum NCPF0118 [2]: less susceptible
effect on survival of clinical isolates (dose dependence) ([3]; 0%, 5%, 10% (w/v) in 50% PEG 8000 + 20% urea): dose-dependent
effectiveness of treatment compared with T. rubrum NCPF0118 ([3]; four clinical isolates): as effective as that observed when T. rubrum NCPF0118 was used
killing of T. rubrum NCPF0118 ([4]; 10% (w/v) in 50% (w/v) PEG 8000 vehicle, 28 d of treatment): > 99.9%
fungal colonies isolated from nail fragments ([4]; Experiment 1, 10% (w/v), both presence and absence of urea, daily 28 days): no colonies were isolated
effect of treatment on fungal survival (dose dependence) ([4]; Experiment 2, 0%, 2.5%, 5%, 10% (w/v) in 50% PEG 8000 + 20% urea): dose-dependent effect
reduction in fungal survival ([4]; Experiment 2, 2.5% and 5.0% (w/v), daily): significant reductions in fungal survival
reduction in fungal survival ([4]; Experiment 2, 2.5%, 5.0% and 10.0% (w/v), alternate days): the reduction in fungal survival was significant
reduction of fungal survival relative to Experiment 1 ([4]; Experiment 2, 5% (w/v), difference not statistically significant): less effective in reducing fungal survival than observed in Experiment 1
fungal colonies recovered ([4]; Experiment 2, 10% (w/v) applied daily, PEG 8000 + 20% urea): no fungal colonies were recovered
decrease in survival of the fungus compared to controls ([4]; Experiment 2, 10% (w/v) applied on alternate days): ~3 log10
fungal colonies recovered ([4]; Experiment 2, 10% (w/v) applied on alternate days, PEG 8000 + 20% urea): small numbers of colonies were recovered
visual examination of nail fragments ([4]; Experiment 2, after 28 d treatment, versus vehicle alone (FIG. 7)): no visual evidence of fungal infection
effect of simulated washing on antifungal efficacy ([4]; Experiment 4, nail surface wiped with sterile water before application): did not affect the antifungal efficacy
fungal colonies recovered ([4]; Experiment 4, washed or unwashed nail fragments, 28 days): No fungal colonies were recovered

— patent US20130109049A1, “Method of Establishing a Fungal Nail Infection” (NOVABIOTICS LIMITED, priority 2009, published 2013)
